Consider 22 molecules from USRE47689E1, “Compounds for treating spinal muscular atrophy” (PTC Therapeutics, Inc., priority 2011, dated 2019).

Data set [1] relates to SMN2 minigene (full length SMN2 minigene mRNA containing SMN2 exon 7). Put plainly: SMN2 minigene mRNA splicing RT-qPCR assay in cultured cells. As to conditions: Homo sapiens, HEK293-H, read-out: EC1.5x for production of full length SMN2 mRNA. It is filed as cell-based, human. Summed up:
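Full-length SMN2 minigene mRNA (exon 7 included), minigene-specific and not endogenous SMN, quantified by RT-qPCR multiplexed with GAPDH in stably transfected HEK293H cells after 24 h compound exposure at 37° C. Abundance from efficiency-corrected Ct, normalized to GAPDH and vehicle; EC1.5x reported as star bins.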

Data set [2] relates to Smn protein. As to the kind of experiment: Smn protein assay in cultured cells (SMN HTRF). It is filed as cell-based, human. As to conditions: 48 hours; for EC1.5x (concentration giving 1.5-fold Smn protein increase): SMA Type 1 patient fibroblast cells (GM03813), 7-point concentration curve, SMN HTRF, concentration producing 1.5 times Smn protein vs DMSO vehicle control, read-out: EC1.5x for Smn protein expression; for maximum fold (Fold) increase of Smn protein: SMA patient fibroblast cells, 7-point concentration data, fold increase relative to vehicle control (SMN HTRF). Summed up: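 Smn in SMA fibroblast lysates, measured by anti-SMN HTRF after 48 h compound exposure; EC1.5x from fold change over vehicle.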

The mark [3] stands for this setting: HEK293H cells stably transfected with SMN2-A minigene, 24 hours, 7-point concentration curve, 1.5-fold relative to vehicle-treated cells.

Where two headings read alike, the source gives them in different places.

Regarding `Cc1ccc2nc(-c3cc4ccc(N5CCNCC5)cc4oc3=O)cn2c1` [Compound 51, 3-(6-methylimidazo[1,2-a]pyridin-2-yl)-7-(piperazin-1-yl)-2H-chromen-2-one], the melting point was 229 to 232 °C. Moreover, the EC (1.5-fold) in data set [1] (setting [3]) is 0.1 to 0.3 µM. Besides, in data set [2], the EC1.5x (concentration giving 1.5-fold Smn protein increase) was less than 300 nM and the “maximum fold (Fold) increase of Smn protein” value (“maximum fold (Fold) increase” below) is given as “***** (fold increase >1.65)”.
`C[C@@H]1CN(c2ccc3cc(-c4cn5cccnc5n4)c(=O)oc3c2)CCN1` [Compound 169, 3-(imidazo[1,2-a]pyrimidin-2-yl)-7-[(3R)-3-methylpiperazin-1-yl]-2H-chromen-2-one] returned a melting point of 285 to 287 °C. Besides, in data set [1] (setting [3]), the EC (1.5-fold) is 0.3 to 1 µM. Moreover, in data set [2], the EC1.5x (concentration giving 1.5-fold Smn protein increase) lay within 1000 to 3000 nM; the “maximum fold (Fold) increase” value was “*** (fold increase between >1.35 and ≤1.5)”.
Take `COc1ccc(-c2cc3ccc(N4CCNCC4)cc3oc2=O)cc1C` [Compound 541, 3-(4-methoxy-3-methylphenyl)-7-(piperazin-1-yl)-2H-chromen-2-one]: the melting point is 171 to 173 °C. In addition, the EC (1.5-fold) in data set [1] (setting [3]) lay within 1 to 3 µM. For the same molecule, the “maximum fold (Fold) increase” value in data set [2] is “* (maximum fold increase of ≤1.2)”.
Take `Cc1cn2cc(-c3cc4ccc(N5CCNCC5)cc4oc3=O)cc2cn1` [Cpd 588, 3-(3-methylpyrrolo[1,2-a]pyrazin-7-yl)-7-(piperazin-1-yl)-2H-chromen-2-one]: the melting point is 220 °C (dec.). Besides, the EC (1.5-fold) in data set [1] (setting [3]) is less than 0.1 µM. Moreover, in data set [2], the EC1.5x (concentration giving 1.5-fold Smn protein increase) is less than 300 nM and the “maximum fold (Fold) increase” value is “***** (fold increase >1.65)”.
Take `CCOc1ncccc1-c1cc2ccc(N3CCNCC3)cc2oc1=O` [Compound 256, 3-(2-ethoxypyridin-3-yl)-7-(piperazin-1-yl)-2H-chromen-2-one]: the melting point lay in the range of 186 to 188 °C. For the same molecule, in data set [1] (setting [3]), the EC (1.5-fold) lay within 3 to 30 µM. Besides, in data set [2], the “maximum fold (Fold) increase” value is listed as “* (maximum fold increase of ≤1.2)”.
In turn, `Cc1cn2cc(-c3cc4ccc(OC5CCN(C(C)C)CC5)cc4oc3=O)nc2c(C)n1` [Compound 901, 3-(6,8-dimethylimidazo[1,2-a]pyrazin-2-yl)-7-{[1-(propan-2-yl)piperidin-4-yl]oxy}-2H-chromen-2-one] showed a melting point of 185 to 191 °C. Further, the EC (1.5-fold) in data set [1] (setting [3]) was less than 0.1 µM. In data set [2], the EC1.5x (concentration giving 1.5-fold Smn protein increase) is less than 300 nM and the “maximum fold (Fold) increase” value is “***** (fold increase >1.65)”.
The molecule `CCOc1cccc(-c2cc3ccc(N4CCN(C)CC4)cc3oc2=O)n1` [Compound 381, 3-(6-ethoxypyridin-2-yl)-7-(4-methylpiperazin-1-yl)-2H-chromen-2-one] registered a melting point of 170 to 172 °C. Further, the EC (1.5-fold) in data set [1] (setting [3]) lay in the range of 1 to 3 µM. In addition, in data set [2], the “maximum fold (Fold) increase” value is reported as “* (maximum fold increase of ≤1.2)”.
The molecule `Cc1cn2cc(-c3cc4ccc(N5C[C@@H]6C[C@H]5CN6C)cc4oc3=O)nc2c(C)n1` [Compound 696, 3-(6,8-dimethylimidazo[1,2-a]pyrazin-2-yl)-7-[(1S,4S)-5-methyl-2,5-diazabicyclo[2.2.1]hept-2-yl]-2H-chromen-2-one] showed a melting point of 219 to 226 °C. In data set [1] (setting [3]), the EC (1.5-fold) is less than 0.1 µM. In data set [2], the EC1.5x (concentration giving 1.5-fold Smn protein increase) is less than 300 nM and the “maximum fold (Fold) increase” value is “***** (fold increase >1.65)”.
For the molecule `CCN(CC)Cc1ccc2cc(-c3nc4ccccc4s3)c(=O)oc2c1` [Compound 57, 3-(1,3-benzothiazol-2-yl)-7-[(diethylamino)methyl]-2H-chromen-2-one], the melting point was in the range of 116 to 119 °C. The EC (1.5-fold) in data set [1] (setting [3]) was in the range of 1 to 3 µM. For the same molecule, the “maximum fold (Fold) increase” value in data set [2] was “** (fold increase between >1.2 and ≤1.35)”.
Turning to `Cn1cc2cc(-c3cc4ccc(C5CCNCC5)cc4oc3=O)ccc2n1` [Compound 856, 3-(2-methyl-2H-indazol-5-yl)-7-(piperidin-4-yl)-2H-chromen-2-one], the melting point lay within 232 to 238 °C. Besides, the EC (1.5-fold) in data set [1] (setting [3]) was less than 0.1 µM. Also, in data set [2], the EC1.5x (concentration giving 1.5-fold Smn protein increase) is less than 300 nM and the “maximum fold (Fold) increase” value is “***** (fold increase >1.65)”.
Turning to `C[C@@H]1CN[C@@H](C)CN1c1ccc2cc(-c3cn4cc(Cl)ccc4n3)c(=O)oc2c1` [Compound 93, 3-(6-chloroimidazo[1,2-a]pyridin-2-yl)-7-[(2R,5S)-2,5-dimethylpiperazin-1-yl]-2H-chromen-2-one], the melting point was in the range of 245 to 247 °C. For the same molecule, the EC (1.5-fold) in data set [1] (setting [3]) was in the range of 1 to 3 µM. Moreover, in data set [2], the “maximum fold (Fold) increase” value was “** (fold increase between >1.2 and ≤1.35)”.
`CC(=O)O.CCN1CCN(c2ccc3cc(-c4ccc5nc(C)sc5c4)c(=O)oc3c2)C[C@@H]1C` [Compound 777, 7-[(3S)-4-ethyl-3-methylpiperazin-1-yl]3-(2-methyl-1,3-benzothiazol-6-yl)-2H-chromen-2-one acetate] had a melting point of 180 to 182 °C. In data set [1] (setting [3]), the EC (1.5-fold) fell in the range of 3 to 30 µM. In data set [2], the “maximum fold (Fold) increase” value was “* (maximum fold increase of ≤1.2)”.
The corresponding values for `O=c1oc2cc(O[C@@H]3CCNC3)ccc2cc1-c1nc2ccccc2s1` [Compound 55, 3-(1,3-benzothiazol-2-yl)-7-[(3R)-pyrrolidin-3-yloxy]-2H-chromen-2-one] are 205 to 211 °C, 1 to 3 µM and “* (maximum fold increase of ≤1.2)”.
`Cc1cn2cc(-c3cc4ccc(N5C[C@H]6CCCN(CCO)[C@H]6C5)cc4oc3=O)nc2c(C)n1` [Compound 785, 3-(6,8-dimethylimidazo[1,2-a]pyrazin-2-yl)-7-[(4aR,7aR)-1-(2-hydroxyethyl)octahydro-6H-pyrrolo[3,4-b]pyridin-6-yl]-2H-chromen-2-one] had a melting point of 207 to 217 °C. Besides, the EC (1.5-fold) in data set [1] (setting [3]) was less than 0.1 µM. Besides, in data set [2], the EC1.5x (concentration giving 1.5-fold Smn protein increase) lay in the range of 1000 to 3000 nM; the “maximum fold (Fold) increase” value is “**** (fold increase between >1.5 and ≤1.65)”.
With `CNCc1ccc2cc(-c3nc4ccccc4s3)c(=O)oc2c1` [Compound 78, 3-(1,3-benzothiazol-2-yl)-7-[(methylamino)methyl]-2H-chromen-2-one], the melting point was 156 to 160 °C. Further, the EC (1.5-fold) in data set [1] (setting [3]) fell in the range of 0.3 to 1 µM. Besides, the “maximum fold (Fold) increase” value in data set [2] was “*** (fold increase between >1.35 and ≤1.5)”.
`Cc1cn2cc(-c3cc4ccc(OCCN5CC[C@@H](O)C5)cc4oc3=O)nc2c(C)n1` [Compound 941, 3-(6,8-dimethylimidazo[1,2-a]pyrazin-2-yl)-7-{2-[(3R)-3-hydroxypyrrolidin-1-yl]ethoxy}-2H-chromen-2-one] returned a melting point of 195 to 202 °C. In addition, the EC (1.5-fold) in data set [1] (setting [3]) was less than 0.1 µM. Besides, in data set [2], the EC1.5x (concentration giving 1.5-fold Smn protein increase) was 1000 to 3000 nM; the “maximum fold (Fold) increase” value was “**** (fold increase between >1.5 and ≤1.65)”.
`O=c1oc2cc(N3CCNCC3)ccc2cc1-c1ccn[nH]1` [Cpd 29, 7-(piperazin-1-yl)-3-(1H-pyrazol-5-yl)-2H-chromen-2-one]: the melting point lay within 224 to 228 °C. The EC (1.5-fold) in data set [1] (24 h) fell in the range of 3 to 30 µM. Moreover, in data set [2], the “maximum fold (Fold) increase” value was “** (fold increase between >1.2 and ≤1.35)”.
`O=c1oc2cc(N3CC4CCC(C3)N4)ccc2cc1-c1cn2cccc(F)c2n1` [Compound 506, 7-(3,8-diazabicyclo[3.2.1]oct-3-yl)-3-(8-fluoroimidazo[1,2-a]pyridin-2-yl)-2H-chromen-2-one] gave a melting point of 232 to 235 °C. In data set [1] (24 h), the EC (1.5-fold) was 0.1 to 0.3 µM. Also, the “maximum fold (Fold) increase” value in data set [2] was “** (fold increase between >1.2 and ≤1.35)”.
For `Cc1cn2cc(-c3cc4ccc(N5CCN6CCCCC6C5)cc4oc3=O)cc2cn1` (stereo not drawn) [Compound 646, 3-(3-methylpyrrolo[1,2-a]pyrazin-7-yl)-7-(octahydro-2H-pyrido[1,2-a]pyrazin-2-yl)-2H-chromen-2-one], the melting point lay in the range of 218 to 221 °C. The EC (1.5-fold) in data set [1] (setting [3]) is less than 0.1 µM. In data set [2], the EC1.5x (concentration giving 1.5-fold Smn protein increase) was less than 300 nM; the “maximum fold (Fold) increase” value is “**** (fold increase between >1.5 and ≤1.65)”.
Regarding `COc1ccc(-c2cc3ccc(N4CCN[C@H](C)C4)cc3oc2=O)c(OC)c1` [Compound 466, 3-(2,4-dimethoxyphenyl)-7-[(3R)-3-methylpiperazin-1-yl]-2H-chromen-2-one], the melting point was 101 to 103 °C. The EC (1.5-fold) in data set [1] (setting [3]) lay in the range of 3 to 30 µM. In data set [2], the “maximum fold (Fold) increase” value is on record as “* (maximum fold increase of ≤1.2)”.
The corresponding values for `O=c1oc2cc(N3CCNCC3)ccc2cc1-c1cc2ccccc2o1` [Compound 602, 3-(1-benzofuran-2-yl)-7-(piperazin-1-yl)-2H-chromen-2-one] are 208 to 211 °C, 0.3 to 1 µM and “* (maximum fold increase of ≤1.2)”.
`COc1ccc(-c2cc3ccc(N4CCN[C@@H](C)C4)cc3oc2=O)cc1F` [Compound 545, 3-(3-fluoro-4-methoxyphenyl)-7-[(3S)-3-methylpiperazin-1-yl]-2H-chromen-2-one]: the melting point fell in the range of 141 to 143 °C. Also, the EC (1.5-fold) in data set [1] (setting [3]) was 0.1 to 0.3 µM. Further, the “maximum fold (Fold) increase” value in data set [2] is “*** (fold increase between >1.35 and ≤1.5)”.
